Results: paper PMC4826033 (ACS chemical biology, 2015)

Columns and labels:
20S proteasome = conditions: cited from earlier work
[1] = test system: E. coli indicator strain ATCC 27856; assay: Antibacterial activity against E. coli indicator strain; type: cell-based; conditions: data not shown

Question: With `C/C=C(\NC(=O)c1csc(-c2csc(-c3ccc4c(n3)-c3csc(n3)[C@H]([C@@H](C)O)NC(=O)c3csc(n3)[C@H](C(C)(C)O)NC(=O)c3csc(n3)/C(=C/C)NC(=O)[C@H]([C@@H](C)O)NC(=O)c3csc-4n3)n2)n1)C(=O)NC[C@@H](C)O` [thiocillin I] as the compound, how does the “proteasome inhibitory properties (in words)” value (20S proteasome) read?
Answer: have not yet revealed any proteasome inhibitory properties

Question: For `C=C(NC(=O)C(=C)NC(=O)c1csc(C2=NC3c4csc(n4)[C@H]4NC(=O)c5csc(n5)[C@H]([C@](C)(O)[C@@H](C)O)NC(=O)[C@H]5CSC(=N5)/C(=C/C)NC(=O)[C@H]([C@@H](C)O)NC(=O)c5csc(n5)[C@@]3(CC2)NC(=O)[C@H](C)NC(=O)C(=C)NC(=O)C(=C)NC(=O)[C@H](C(C)C)N[C@@H]2C=Cc3c([C@H](C)O)cc(nc3[C@H]2O)C(=O)O[C@@H]4C)n1)C(N)=O` (some centres unmarked) [siomycin], which “proteasome inhibitory properties (in words)” value (20S proteasome) is on record?
Answer: active proteasome inhibitors

Question: With `C=C(NC(=O)C(=C)NC(=O)c1csc(C2=N[C@@H]3c4csc(n4)[C@H]4NC(=O)c5csc(n5)[C@H]([C@](C)(O)[C@@H](C)O)NC(=O)[C@H]5CSC(=N5)/C(=C/C)NC(=O)[C@H]([C@@H](C)O)NC(=O)c5csc(n5)[C@]3(CC2)NC(=O)[C@H](C)NC(=O)C(=C)NC(=O)[C@H](C)NC(=O)[C@H]([C@@H](C)CC)N[C@@H]2C=Cc3c([C@H](C)O)cc(nc3[C@H]2O)C(=O)O[C@@H]4C)n1)C(N)=O` [Thiostrepton A] as the compound, how does the “antibacterial activity against E. coli” value [1] read?
Answer: Neither thiostrepton A nor its Ala4 variants displayed any antibacterial activity

Question: And the “proteasome inhibitory properties (in words)” value (20S proteasome)?
Answer: active proteasome inhibitors

Question: For `C/C=C(\NC(=O)c1csc(-c2csc(-c3ccc4c(n3)-c3csc(n3)[C@H]([C@@H](C)O)NC(=O)c3csc(n3)[C@H](C(C)C)NC(=O)c3csc(n3)/C(=C/C)NC(=O)[C@H]([C@@H](C)O)NC(=O)c3csc-4n3)n2)n1)C(=O)NC[C@@H](C)O` [micrococcin P1], which “proteasome inhibitory properties (in words)” value (20S proteasome) is on record?
Answer: have not yet revealed any proteasome inhibitory properties
